This is an account of results in US6544987B2, “Compounds, compositions, and methods for stimulating neuronal growth and elongation” (Pfizer Inc., priority 1999, dated 2003).

Chain of FKBP12 (P62942 whole entry, species assumed): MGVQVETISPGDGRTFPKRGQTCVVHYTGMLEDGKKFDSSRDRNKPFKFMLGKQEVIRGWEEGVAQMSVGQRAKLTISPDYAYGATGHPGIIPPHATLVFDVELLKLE

One experiment addresses FKBP12 (Homo sapiens, UniProt P62942). Put plainly: Affinity for FKBP-12 (Ki), succinyl-Ala-Leu-Pro-Phe-pNA chymotrypsin-coupled assay. Format: biochemical. Set-up: key to FKBP12 inhibition (in Kiapps column): NI: no inhibition; NSI: no significant inhibition. As to conditions: @ 20. The procedure:
In a quartz cuvette, a final 1 mL buffer concentration was reached (50 mM Hepes, 100 mM NaCl, pH 8.0). Within this final reaction volume, 3.5 μL […] FKBP-12 (in 50 mM Hepes, 100 mM NaCl, pH 8.0) and 10 μL test compound in DMSO were added. The reaction was initiated by adding 10 μL chymotrypsin (100 mg/mL in 1 mM HCl) followed by 5 μL (1-20 mM succinyl-Ala-Leu-Pro-Phe-pNA in 240 mM LiCl/TFE).
The absorbance at 390 nm versus time was monitored for up to 400 seconds. Rate constants were determined from the absorbance versus time plots generated.
With `O=C(OCCCCc1ccccc1)[C@@H]1CCCCN1S(=O)(=O)N(O)c1ccccc1` [Compound 99, (S)-1-(Hydroxy-phenyl-sulfamoyl)-piperidine-2-carboxylic acid 4-phenyl-butyl ester], the “FKBP12 inhibition (in Kiapps column)” value was “NI @ 20”. Turning to `O=C(O)[C@@H]1CCCN1S(=O)(=O)Nc1cccnc1` [Compound 116, (S)-1-(Pyridin-3-ylsulfamoyl)-pyrrolidine-2-carboxylic acid], the “FKBP12 inhibition (in Kiapps column)” value is listed as “NSI @ 20”. Still for that read-out and setting: the same measure for `O=C1[C@@H]2CCCN2S(=O)(=O)N1c1cccnc1` [Compound 117, (S)-1,1-Dioxo-2-pyridin-3-yl-hexahydro-1λ^6-thia-2,6a-diaza-pentalen-3-one]: “NSI @ 20”.

The same experiment, now with this note: Table 2; read-out: FKBP12 Kiapps.
On to `C[C@@H]1CN(S(=O)(=O)N2CCCC[C@H]2C(=O)OCc2ccccc2)C[C@H](C)O1` [Compound 88, (S)-1-(cis-2,6-Dimethyl-morpholine-4-sulfonyl)-piperidine-2-carboxylic acid benzyl ester], for which the Ki worked out at 837 nM. In the case of `COC(=O)[C@@H]1CCCCN1S(=O)(=O)Nc1cc(OC)c(OC)c(OC)c1` [Compound 90, (S)-1-(3,4,5-Trimethoxy-phenylsulfamoyl)-piperidine-2-carboxylic acid Methyl ester], the Ki was 6900 nM. Same read-out and setting: the same measure for `COc1cc(NS(=O)(=O)N2CCCC[C@H]2C(=O)NCCCN2CCCCC2)cc(OC)c1OC` [Compound 91, (S)-1-(3,4,5-Trimethoxy-phenylsulfamoyl)-piperidine-2-carboxylic acid (3-piperidin-1-yl-propyl)-amide]: 1300 nM; for `COc1cc(NS(=O)(=O)N2CCCC[C@H]2C(=O)NCCCc2cccnc2)cc(OC)c1OC` [Compound 93, (S)-1-(3,4,5-Trimethoxy-phenylsulfamoyl)-piperidine-2-carboxylic acid (3-pyridin-3-yl-propyl)-amide]: 200 nM; for `O=C(OCCCCc1ccccc1)[C@@H]1CCCCN1S(=O)(=O)Nc1ccc(N2CCOCC2)nc1` [Compound 94, (S)-1-(6-Morpholin-4-yl-pyridin-3-ylsulfamoyl)-piperidine-2-carboxylic acid 4-phenyl-butyl ester]: 208 nM.

Turning to `O=C(OCCCCc1ccccc1)[C@@H]1CCCCN1S(=O)(=O)Nc1cc(F)c(F)c(F)c1` [Compound 95, (S)-1-(3,4,5-Trifluoro-phenylsulfamoyl)-piperidine-2-carboxylic acid 4-phenyl-butyl ester], the Ki amounted to 435 nM.

On to `O=C(OCCCCc1ccccc1)[C@@H]1CCCCN1S(=O)(=O)Nc1ccc(C(F)(F)F)nc1` [Compound 96, (S)-1-(6-Trifluoromethyl-pyridin-3-ylsulfamoyl)-piperidine-2-carboxylic acid 4-phenyl-butyl ester], for which the Ki was 440 nM. The same measure, in the same setting: the same measure for `O=C(OCCCCc1ccccc1)[C@@H]1CCCCN1S(=O)(=O)Nc1cccnc1` [Compound 97, (S)-1-(Pyridin-3-ylsulfamoyl)-piperidine-2-carboxylic acid 4-phenylbutyl ester]: 73 nM; for `COc1cccc(NS(=O)(=O)N2CCCC[C@H]2C(=O)OCCCCc2ccccc2)c1` [Compound 98]: 218 nM.

In the case of `COc1cc(NS(=O)(=O)N2CCCC[C@H]2C(=O)OC(COCc2ccccc2)COCc2ccccc2)cc(OC)c1OC` [Compound 102, (S)-1-(3,4,5-Trimethoxy-phenylsulfamoyl)-piperidine-2-carboxylic acid 2-benzyloxy-1-benzyloxymethyl-ethyl ester], the Ki turned out to be 171 nM.

With `COc1ccc(NS(=O)(=O)N2CCCC[C@H]2C(=O)OC(COCc2ccccc2)COCc2ccccc2)cn1` [Compound 103, (S)-1-(6-Methoxy-pyridin-3-ylsulfamoyl)-piperidine-2-carboxylic acid 2-benzyloxy-1-benzyloxymethyl-ethyl ester], the Ki came to 39 nM. As for `COc1cc(NS(=O)(=O)N2CCCC[C@H]2C(=O)OC(COCc2ccccc2)COCc2ccccc2)c(OC)cc1Cl` [Compound 104, (S)-1-(4-Chloro-2,5-dimethoxy-phenylsulfamoyl)-piperidine-2-carboxylic acid 2-benzyloxy-1-benzyloxymethyl-ethyl ester], the Ki stood at 7100 nM. The same measure, in the same setting: the same measure for `O=C(OC(COCc1ccccc1)COCc1ccccc1)[C@@H]1CCCCN1S(=O)(=O)Nc1cccnc1` [Compound 105, (S)-1-(Pyridin-3-ylsulfamoyl)-piperidine-2-carboxylic acid 2-benzyloxy-1-benzyloxymethyl-ethyl ester]: 33 nM; for `O=C(OC(COCc1ccccc1)COCc1ccccc1)[C@@H]1CCCCN1S(=O)(=O)Nc1ccc(N2CCOCC2)nc1` [Compound 106, (S)-1-(6-Morpholin-4-yl-pyridin-3-ylsulfamoyl)-piperidine-2-carboxylic acid 2-benzyloxy-1-benzyloxymethyl-ethyl ester]: 115 nM; for `Cc1ccc(NS(=O)(=O)N2CCCC[C@H]2C(=O)OC(COCc2ccccc2)COCc2ccccc2)cn1` [Compound 107, (S)-1-(6-Methyl-pyridin-3-ylsulfamoyl)-piperidine-2-carboxylic acid 2-benzyloxy-1-benzyloxymethyl-ethyl ester]: 88 nM.

Take `O=C(OC(COCc1ccccc1)COCc1ccccc1)[C@@H]1CCCCN1S(=O)(=O)Nc1cnc(N2CCOCC2)c(C(F)(F)F)c1` [Compound 108, (S)-1-(Morpholin-4-yl-trifluoromethyl-pyridin-3-ylsulfamoyl)-piperidine-2-carboxylic acid 2-benzyloxy-1-benzyloxymethyl-ethyl ester]: the Ki turned out to be 127 nM. Same read-out and setting: the same measure for `COc1cc(NS(=O)(=O)N2CCCC[C@H]2C(=O)N[C@H](COCc2cccnc2)C(C)C)cc(OC)c1OC` [Compound 112, (S)-1-(3,4,5-Trimethoxy-phenylsulfamoyl)-piperidine-2-carboxylic acid [(S)-2-methyl-1-(pyridin-3-ylmethoxymethyl)-propyl]-amide]: 41 nM; for `CCC(C)(C)NS(=O)(=O)N1CCC[C@H]1COC(=O)N(CCc1ccccc1)Cc1ccccc1` [Compound 113, Benzyl-phenethyl-carbamic acid (S)-1-(dimethyl-propylsulfamoyl)-pyrrolidin-2-ylmethyl ester]: 33000 nM.

Consider `CCC(C)(C)NS(=O)(=O)N1CCC[C@H]1C(=O)NCCCc1cccnc1` [Compound 114, (S)-1-(1,1-Dimethyl-propylsulfamoyl)-pyrrolidine-2-carboxylic acid (3-pyridin-3-yl-propyl)-amide], for which the Ki is 1110 nM. `O=C(OCc1ccccc1)[C@@H]1CCCN1S(=O)(=O)Nc1cccnc1` [Compound 115, (S)-1-(Pyridin-3-ylsulfamoyl)-pyrrolidine-2-carboxylic acid benzyl ester]: the Ki was 20400 nM. The same measure, in the same setting: the same measure for `O=C(NCCCc1ccccc1)[C@@H]1CCCN1S(=O)(=O)Nc1cccnc1` [Compound 118, (S)-1-(Pyridin-3-ylsulfamoyl)-pyrrolidine-2-carboxylic acid (3-phenyl-propyl)-amide]: 16900 nM; for `COc1cc(NS(=O)(=O)N2CCCC[C@H]2C(=O)CCCCCc2ccccc2)cc(OC)c1OC` [Compound 119, (S)-2-(6-Phenyl-hexanoyl)-piperidine-1-sulfonic acid (3,4,5-trimethoxy-phenyl)-amide]: 1300 nM.
